Key:
OE19 (3A1) = target: T1, OE19 (3A1) (Homo sapiens, UniProt P30838); assay: Cellular ALDEFLUOR assay in OE19 cells (preferential ALDH3A1 expression)
T1 sequence (P30838 1-453): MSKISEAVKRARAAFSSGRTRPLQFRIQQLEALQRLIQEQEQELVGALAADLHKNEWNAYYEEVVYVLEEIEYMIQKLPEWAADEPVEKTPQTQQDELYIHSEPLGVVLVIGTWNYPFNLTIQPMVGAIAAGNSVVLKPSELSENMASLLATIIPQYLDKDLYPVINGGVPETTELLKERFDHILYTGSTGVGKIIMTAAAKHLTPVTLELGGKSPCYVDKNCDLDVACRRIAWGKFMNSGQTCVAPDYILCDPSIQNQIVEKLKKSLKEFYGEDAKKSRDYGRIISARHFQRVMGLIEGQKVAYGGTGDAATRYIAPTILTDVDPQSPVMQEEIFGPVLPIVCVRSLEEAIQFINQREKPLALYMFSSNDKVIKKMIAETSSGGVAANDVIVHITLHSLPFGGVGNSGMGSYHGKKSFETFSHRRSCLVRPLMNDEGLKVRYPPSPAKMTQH

Human ALDH3A1 = target: T2, Human ALDH3A1 (Homo sapiens, UniProt P30838); assay: ALDH3A1 biochemical assay (benzaldehyde/NADP+, diaphorase-resazurin readout, 1,536-well)
T2 sequence (P30838 1-453): T1 sequence (P30838 1-453)

[1] = Table S5, biochemical curve class
[2] = Table S4, biochemical curve class

| AC50 (OE19 (3A1)) [nM] | Cell_Efficacy (OE19 (3A1); Table S5, OE19 cells) | Cell_CC-v2 (OE19 (3A1); Table S5, cellular curve class) | AC50 (Human ALDH3A1) [nM] | Efficacy (Human ALDH3A1; Table S5, biochemical) | CC-v2 (Human ALDH3A1; [1]) | Cell_Efficacy (OE19 (3A1); Table S4, OE19 cells) | Cell_CC-v2 (OE19 (3A1); Table S4, cellular curve class) | Efficacy (Human ALDH3A1; Table S4, biochemical) | CC-v2 (Human ALDH3A1; [2]) | SMILES |
| --- | --- | --- | --- | --- | --- | --- | --- | --- | --- | --- |
| 40.7 | -74.47 | -1.2 | 18.8 | -99.55 | -1.1 | – | – | – | – | O=C(NCc1ccc2c(c1)CCC2)c1csc(N2CCN(c3cccc(C(F)(F)F)c3)CC2)n1 [NCGC01407784-01] |
| 282 | -76.28 | -1.2 | 447 | -37.12 | -1.2 | – | – | – | – | CC(C)(C)c1cccc(CNC(=O)c2csc(N3CCN(c4cccc(C(F)(F)F)c4)CC3)n2)c1 [NCGC01407765-01] |
| 316 | -103.28 | -1.1 | 501 | -83.40 | -1.1 | – | – | – | – | O=C(NCc1cccc(OC(F)(F)F)c1)c1csc(N2CCN(c3cccc(C(F)(F)F)c3)CC2)n1 [NCGC01407819-01] |
| – | 0.00 | 4 | 15.9 | -100.89 | -1.1 | – | – | – | – | COc1cc(CNC(=O)c2csc(N3CCN(c4cccc(C(F)(F)F)c4)CC3)n2)ccc1F [NCGC01396486-01] |
| 342 | -95.79 | -1.1 | 28.2 | -101.06 | -1.1 | – | – | – | – | Cc1ccc(CNC(=O)c2csc(N3CCN(c4cccc(C(F)(F)F)c4)CC3)n2)cc1F [NCGC01407934-01] |
| 28200 | -38.73 | -2.3 | – | -23.04 | 4 | – | – | – | – | NC(=O)c1csc(N2CCN(c3cccc(C(F)(F)F)c3)CC2)n1 [NCGC01407961-01] |
| 17800 | 23.55 | 5 | 708 | -71.46 | -1.2 | – | – | – | – | O=C(NCc1cccc(N2CCCC2=O)c1)c1csc(N2CCN(c3cccc(C(F)(F)F)c3)CC2)n1 [NCGC01397385-01] |
| 2720 | -85.12 | -1.1 | 28.2 | -87.34 | -1.1 | – | – | – | – | O=C(NCc1ccc(S(F)(F)(F)(F)F)cc1)c1csc(N2CCN(c3cccc(C(F)(F)F)c3)CC2)n1 [NCGC01407933-01] |
| 1360 | -77.80 | -1.4 | 11.2 | -96.06 | -1.1 | – | – | – | – | O=C(NCc1ccc(Br)c(C(F)(F)F)c1)c1csc(N2CCN(c3cccc(C(F)(F)F)c3)CC2)n1 [NCGC01396480-01] |
| – | – | – | 1290 | – | – | 0.00 | 4 | -92.59 | -1.1 | Cc1cccc(CNC(=O)c2csc(N3CCN(c4cncc(Br)c4)CC3)n2)c1 [NCGC01212814-01] |
| 965 | -69.34 | -1.4 | 2.8 | -102.00 | -1.1 | – | – | – | – | O=C(NCc1ccc2cc(Cl)ccc2c1)c1csc(N2CCN(c3cccc(C(F)(F)F)c3)CC2)n1 [NCGC01407805-01] |
| 2240 | -130.58 | -1.1 | 794 | -73.90 | -1.2 | – | – | – | – | O=C(NCc1ccc(N2CCNC2=O)cc1)c1csc(N2CCN(c3cccc(C(F)(F)F)c3)CC2)n1 [NCGC01407779-01] |
| 15800 | -93.67 | -1.3 | 316 | -32.49 | -1.2 | – | – | – | – | Cc1cc(CNC(=O)c2csc(N3CCN(c4cccc(C(F)(F)F)c4)CC3)n2)ccc1-c1ccccc1 [NCGC01407768-01] |
| 880 | – | – | 1150 | – | – | -90.33 | -1.3 | -94.91 | -1.1 | Cc1cccc(CNC(=O)c2csc(N3CCN(c4ccc(F)cc4)CC3)n2)c1 [NCGC01219292-01] |
| 91 | -83.99 | -1.1 | 75 | -78.48 | -1.2 | – | – | – | – | Cc1ccccc1-c1cccc(CNC(=O)c2csc(N3CCN(c4cccc(C(F)(F)F)c4)CC3)n2)c1 [NCGC01407985-01] |
| 860 | -116.21 | -2.1 | 11.2 | -103.16 | -1.1 | – | – | – | – | O=C(NCc1cccc(CC(F)(F)F)c1)c1csc(N2CCN(c3cccc(C(F)(F)F)c3)CC2)n1 [NCGC01407930-01] |
| 11.2 | -68.37 | 5 | 891 | -74.78 | -1.2 | – | – | – | – | CC(C)(O)c1ccc(CNC(=O)c2csc(N3CCN(c4cccc(C(F)(F)F)c4)CC3)n2)cc1 [NCGC01408044-01] |
| – | -16.71 | 4 | 1580 | -41.09 | -1.2 | – | – | – | – | O=C(NC1CC1)c1ccc(CNC(=O)c2csc(N3CCN(c4cccc(C(F)(F)F)c4)CC3)n2)cc1 [NCGC01397384-01] |
| 6310 | -114.29 | -2.1 | – | -22.34 | 4 | – | – | – | – | O=C(Nc1ccncc1)c1ccc(CNC(=O)c2csc(N3CCN(c4cccc(C(F)(F)F)c4)CC3)n2)cc1 [NCGC01396478-01] |

Second part, the molecule before the results:

| SMILES | AC50 (OE19 (3A1)) [nM] | Cell_Efficacy (OE19 (3A1); Table S5, OE19 cells) | Cell_CC-v2 (OE19 (3A1); Table S5, cellular curve class) | AC50 (Human ALDH3A1) [nM] | Efficacy (Human ALDH3A1; Table S5, biochemical) | CC-v2 (Human ALDH3A1; [1]) | Cell_Efficacy (OE19 (3A1); Table S4, OE19 cells) | Cell_CC-v2 (OE19 (3A1); Table S4, cellular curve class) | Efficacy (Human ALDH3A1; Table S4, biochemical) | CC-v2 (Human ALDH3A1; [2]) |
| --- | --- | --- | --- | --- | --- | --- | --- | --- | --- | --- |
| Cc1cccc(CNC(=O)c2csc(N3CCN(c4cc(C(F)(F)F)nc5ccccc45)CC3)n2)c1 [NCGC01210239-01] | 9880 | – | – | 810 | – | – | -51.72 | -2.4 | -79.44 | -1.1 |
| CCc1ccc(N2CCN(c3nc(C(=O)NCc4cccc(C)c4)cs3)CC2)cc1 [NCGC01211128-01] | 3130 | – | – | 910 | – | – | -86.59 | -1.1 | -85.15 | -1.1 |
| COc1ccc(F)c(N2CCN(c3nc(C(=O)NCc4cccc(C)c4)cs3)CC2)c1 [NCGC01211189-01] | 7850 | – | – | 910 | – | – | -96.01 | -1.1 | -85.97 | -1.1 |
| Cc1cccc(CNC(=O)c2csc(N3CCN(c4cccc([S+](C)(=O)[O-])c4)CC3)n2)c1 [NCGC01210723-01] | 1240 | – | – | 3640 | – | – | -75.10 | -1.2 | -72.64 | -1.2 |
| Cc1cccc(CNC(=O)c2csc(N3CCN(c4ccc(F)c(Cl)c4)CC3)n2)c1 [Compound 12] | 990 | – | – | 510 | – | – | -76.59 | -1.1 | -99.84 | -1.1 |
| Cc1cccc(CNC(=O)c2csc(N3CCN(c4ccc(C)c(C)c4)CC3)n2)c1 [NCGC01211295-01] | 2210 | – | – | 1020 | – | – | -85.13 | -1.3 | -92.09 | -1.1 |
| Cc1cccc(CNC(=O)c2csc(N3CCN(c4ccccc4C)CC3)n2)c1 [NCGC01211138-01] | 7850 | – | – | 1450 | – | – | -88.54 | -1.1 | -88.86 | -1.1 |
| Cc1cccc(CNC(=O)c2csc(N3CCN(c4cccc(C)c4)CC3)n2)c1 [NCGC01211399-01] | 5560 | – | – | 1150 | – | – | -101.59 | -1.3 | -77.88 | -1.2 |
| Cc1cccc(CNC(=O)c2csc(N3CCN(c4ccc(C(F)(F)F)cc4)CC3)n2)c1 [Compound 7] | 880 | – | – | 320 | – | – | -93.28 | -1.1 | -97.93 | -1.1 |
| COc1ccccc1N1CCN(c2nc(C(=O)NCc3cccc(C)c3)cs2)CC1 [NCGC01210996-01] | 50 | – | – | 910 | – | – | -98.32 | -1.3 | -91.28 | -1.1 |
| Cc1cccc(CNC(=O)c2csc(N3CCN(c4ccc(C#N)cc4)CC3)n2)c1 [NCGC01211190-01] | 3510 | – | – | 1450 | – | – | -84.69 | -1.1 | -61.92 | -1.2 |
| Cc1cccc(CNC(=O)c2csc(N3CCN(c4ccc(Br)cc4)CC3)n2)c1 [NCGC01211165-01] | 700 | – | – | 810 | – | – | -91.24 | -1.1 | -72.77 | -1.2 |
| Cc1cccc(CNC(=O)c2csc(N3CCN(c4ccccc4Br)CC3)n2)c1 [Compound 9] | 8810 | – | – | 410 | – | – | -81.02 | -1.3 | -99.96 | -1.1 |
| Cc1cccc(CNC(=O)c2csc(N3CCN(c4cccc(OCc5ccccc5C)c4)CC3)n2)c1 [NCGC01211373-01] | 1110 | – | – | 360 | – | – | -85.56 | -1.1 | -60.22 | -1.2 |

From publication PMC13266984 (Journal of medicinal chemistry, 2026)
